Source: US20030130484A1, “Inhibitors and disassemblers of fibrillogenesis” (priority 2001, published 2003)
≈ marks a conversion by molar mass, not a printed value. Entries after “also recorded” stand apart in the source; their conditions may differ. Square brackets hold non-standard residues; d marks the D form. Peptide text beside a SMILES is read from it. NMeF = CN[C@@H](Cc1ccccc1)C(=O)O; PhLac = O=C(O)[C@@H](O)Cc1ccccc1; NMeL = CN[C@@H](CC(C)C)C(=O)O; NMeV = CN[C@H](C(=O)O)C(C)C; Hiv = CC(C)[C@H](O)C(=O)O; NMeA = CN[C@@H](C)C(=O)O

Legend:
[1] = target: T1, Aβ40 fibrils (Homo sapiens, UniProt P05067)
[2] = target: Aβ40 (Homo sapiens, UniProt P05067); test: Inhibition of Aβ40 fibrillogenesis, thioflavin T fluorescence assay; type: biochemical
[3] = tested on: COS cells; test: COS cell uptake of fluorescent peptides, fluorescence microscopy and HPLC reisolation; type: cell-based
Description: (§1) Briefly, COS cells, were plated on coverslips, and incubated overnight in the presence of 4 μM to β40 μM of the Anth-A16-20 peptide. The cells on coverslips were then washed extensively with PBS, fixed for one hour with a 3.7% formaldehyde solution and mounted on a slide. The cells were examined by fluorescence microscopy using a DAPI filter.
as §1, with “COS” for “Briefly, COS”, “cells,” for “cells, were”, “coverslips, were” for “coverslips, and”, “to 40” for “to β40”, “the Anth-Aβ16-20” for “the Anth-A16-20”
In this experiment, Anth-Aβ16-20m was incubated with COS cells for eight hours. […] The cells were then lysed by the addition of Triton X-100 to 0.1% (v/v), and the lysate was analyzed by HPLC. The HPLC solvent system contained 0.1% trifluoroacetic acid in water (solvent A) and 0.1% trifluoroacetic acid in acetonitrile (solvent B). The peptide was eluted with a gradient of 0%-60% solvent B in 60 minutes. Fractions (1 ml) from the HPLC were collected and analyzed by fluorescence spectroscopy. The excitation and emission wavelengths were 346 nm and 435 nm, respectively.

[4] = Solubility in aqueous media and organic solvents
[5] = Fibril formation by the peptide alone (electron microscopy, Congo Red); type: physicochemical
Description: After incubation of the inhibition and disassembly samples for the appropriate period of time, an aliquot of each sample was applied to a glow-discharge, 400-mesh, carbon-coated support film and stained with 1% uranyl acetate. Micrographs were recorded using Philips EM300 at magnifications of 17,000, 45,000 and 100,000.
(§2) The Congo Red binding assay was performed essentially as described in other publications (Klunk 1989). An aliquot of peptide solution containing 50 μg of peptide was added to 1 ml of a […] solution of Congo Red in 100 mM phosphate buffer, pH 7.4. The solution was incubated for 15 min at room temperature and then the absorbance was measured from 400-600 nm.
For the electron microscopy, aliquots of the inhibition and disassembly samples were applied to a glow-discharge, 400-mesh, carbon-coated support film and stained with 1% uranyl acetate. Micrographs were recorded using a Philips EM300 at magnifications of 17,000, 45,000 and 100,000.

[6] = target: Aβ1-40 fibrils (Homo sapiens, UniProt P05067); test: Congo Red binding assay of Aβ1-40 fibril inhibition and disassembly; type: biochemical
Description: as §2, with “Thioflavin T fluorescence is well known as a sensitive assay for the formation of amyloid fibrils. […] The Congo” for “The Congo”

[7] = target: T1, Aβ40 fibrils; test: Electron microscopy of Aβ40 fibril inhibition and disassembly samples; type: biochemical; conditions: Aβ40 incubated with inhibitor peptide
[8] = target: chymotrypsin (Bos taurus, UniProt P00766); test: Chymotrypsin digestion (protease resistance), RP-HPLC; type: in vitro ADME; conditions: 24 h at 37° C., 0.1 mg/ml chymotrypsin, pH 8.4
Description: Peptides were incubated for 24 h at 37 C with […] chymotrypsin. The percentage of undigested peptide was determined by RC-HPLC as described in the Materials and Methods. […] The arrow marks the position of the intact.
The peptides were dissolved in 0.5% ammonium bicarbonate at a concentration of 1.0 mg/ml. The pH of the solution was 8.4. Chymotrypsin (Worthington Biochemical Corporation) was added to the peptide solutions so that the final concentration was 0.1 mg/ml. Samples were incubated at 37° C. After twenty-four hrs, the samples were frozen and lyophilized. The samples were analyzed by reverse-phase HPLC using an analytical C 18 column (Rainin Microsorb) and eluted, using a 60 min gradient from 10-70% acetonitrile, containing 0.1% (v/v) TFA. The loss of intact peptide and appearance of fragments were quantitated by integration of the appropriate peaks. Results were expressed as a percent digestion of the peptides. In addition, identities of the peaks were confirmed by electrospray mass spectrometry.
The peptides were dissolved in 0.5% ammonium bicarbonate at a concentration of 1.0 mg/ml. […] After twenty-four hours, the samples were lyophilized and then analyzed by reverse-phase HPLC (Rainin-Microsorb C18 column) and a water-acetonitrile (0.1% (v/v) TFA) gradient (10-70% acetonitrile over one h).

T1 sequence (P05067 672-711): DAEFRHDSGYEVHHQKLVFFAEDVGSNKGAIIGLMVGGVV
Sequence of Aβ40 (P05067 672-711): as above
Sequence of Aβ1-40 fibrils (P05067 672-711): as above

SMILES: CC(=O)N[C@@H](CCCCN)C(=O)N[C@@H](CC(C)C)C(=O)N[C@H](C(=O)N[C@@H](Cc1ccccc1)C(=O)N[C@@H](Cc1ccccc1)C(N)=O)C(C)C [Ac-Aβ16-20, Ac-NH-KLVFF-CONH2, reference compound]
- disassembly of pre-formed Aβ40 fibrils (in words) ([1]; thioflavin fluorescence): disassembled pre-formed
- Inhibition of Fibrillogenesis ICmax [2]: 100
- Inhibition of Fibrilogenesis ICmax [2]: 100%

SMILES: CNc1ccccc1C(=O)N[C@@H](CCCCN)C(=O)N[C@@H](CC(C)C)C(=O)N[C@H](C(=O)N[C@@H](Cc1ccccc1)C(=O)N[C@@H](Cc1ccccc1)C(N)=O)C(C)C [Anth-Aβ16-20]
- Fibril Disassembly ICmax [1]: 100%
- Inhibition of Fibrilogenesis ICmax [2]: 100%
- fluorescence of COS cells ([3]; peptide concentration 20 μM): Strong fluorescence
- fluorescence of COS cells ([3]; peptide levels below 4 μM): Very weak fluorescence

SMILES: CNc1ccccc1C(=O)N[C@@H](CCCCN)C(=O)N(C)[C@@H](CC(C)C)C(=O)N[C@H](C(=O)N(C)[C@@H](Cc1ccccc1)C(=O)N[C@@H](Cc1ccccc1)C(N)=O)C(C)C [Anth-Aβ16-20m, Anth-NH—K(me-L)V(me-F)F—CONH2]
- Inhibition ICmax [2]: 100
- integrity of peptide internalized by COS cells and reisolated (HPLC) ([3]; overnight incubation): not modified or degraded
- fluorescence of COS cells ([3]; peptide levels below 4 μM): Very weak fluorescence
- intracellular fluorescence / permeation of COS cell membranes ([3]; twelve hours incubation): permeates cell membranes

SMILES: CC(=O)N[C@@H](CCCCN)C(=O)N[C@@H](CC(C)C)C(=O)N[C@H](C(=O)N[C@@H](Cc1ccccc1)C(=O)N[C@@H](Cc1ccccc1)C(N)=O)C(C)C [Aβ16-20, reference compound]
- solubility [4]: ~1000 µM (≈ 694 µg/mL)
- fibril formation by the peptide alone [5]: aggregates to form amyloid fibrils; also recorded: bind Congo Red
- Inhibition ICmax [2]: 89

SMILES: CC(=O)N[C@@H](CCCCN)C(=O)N[C@@H](CC(C)C)C(=O)O[C@H](C(=O)N[C@@H](Cc1ccccc1)C(=O)O[C@@H](Cc1ccccc1)C(N)=O)C(C)C [Aβ16-20e, Ac—NH—KLesterVFesterF—CONH2] (Ac-KL[Hiv]F[PhLac]-NH2)
- Disassembly ICmax [1]: 100
- Congo Red spectrum, pre-formed Aβ1-40 fibrils to which inhibitor was added ([6]; disassembly): identical to the control spectrum of Congo Red alone
- Congo Red spectrum, Aβ1-40 incubated with inhibitor ([6]; inhibition): identical to the control spectrum of Congo Red alone
- fibril formation by the peptide alone [5]: does not cause a change in the absorbance spectrum of Congo Red
- fibrillar material by electron microscopy, inhibition samples [7]: Fibrillar material was not observed
- Inhibition ICmax [2]: 100

SMILES: CC(=O)N[C@@H](CCCCN)C(=O)N[C@@H](CC(C)C)C(=O)N(C)[C@H](C(=O)N[C@@H](Cc1ccccc1)C(=O)N(C)[C@@H](Cc1ccccc1)C(N)=O)C(C)C [Aβ16-20m2]
- solubility in aqueous media (in words) [4]: highly soluble in aqueous media

SMILES: CC(C)C[C@H](NC(=O)[C@@H](N)CCCCN)C(=O)N[C@H](C(=O)N[C@@H](Cc1ccccc1)C(=O)N[C@@H](Cc1ccccc1)C(=O)N[C@@H](C)C(=O)N[C@@H](CCC(=O)O)C(N)=O)C(C)C [Aβ16-22, NH2-KLVFFAE-CONH2] (H-KLVFFAE-NH2)
- chymotrypsin digestion [8]: cleaved by chymotrypsin
- Inhibition of Fibrillogenesis ICmax [2]: 23.0
- Inhibition of Fibrilogenesis ICmax [2]: 23.0%
- effect on Aβ40 fibril formation (in words) [2]: relatively modest inhibitory effect
- inhibition of fibrillogenesis [2]: 10-20%

SMILES: CC(C)C[C@H](NC(=O)[C@@H](N)CCCCN)C(=O)N(C)[C@H](C(=O)N(C)[C@@H](Cc1ccccc1)C(=O)N(C)[C@@H](Cc1ccccc1)C(=O)N(C)[C@@H](C)C(=O)N[C@@H](CCC(=O)O)C(N)=O)C(C)C [Aβ16-22m(4), NH2-KL(me-V)(me-F)(me-F)(me-A)-E-CONH2] (H-KL[NMeV][NMeF][NMeF][NMeA]E-NH2)
- solubility in aqueous media (in words) [4]: highly soluble in water
- Inhibition of Fibrillogenesis ICmax [2]: 100
- Inhibition of Fibrilogenesis ICmax [2]: 100%

SMILES: CC(C)C[C@@H](C(=O)N[C@H](C(=O)N(C)[C@@H](Cc1ccccc1)C(=O)N[C@@H](Cc1ccccc1)C(=O)N(C)[C@@H](C)C(=O)N[C@@H](CCC(=O)O)C(N)=O)C(C)C)N(C)C(=O)[C@@H](N)CCCCN [Aβ16-22m, NH2-K(me-L)V(me-F)F(me-A)-E-CONH2] (H-K[NMeL]V[NMeF]F[NMeA]E-NH2)
- solubility in aqueous media (in words) [4]: highly soluble in aqueous solutions; also recorded: highly soluble in aqueous media
- solubility relative to unmethylated congener ([4]; physiological pH and ionic strength): 20-40 times
- chymotrypsin digestion [8]: complete resistance; also recorded: highly resistant
- fibril formation by the peptide alone [5]: no fibrillar or aggregated material
- fibrillar material by electron microscopy, inhibition samples [7]: complete lack of fibrils
- Inhibition of Fibrillogenesis ICmax [2]: 100
- Inhibition of Fibrilogenesis ICmax [2]: 100%
- effect on Aβ40 fibril formation (in words) [2]: prevented fibril formation of Aβ40 in a dose dependent manner
- molar excess of inhibitor giving complete elimination of thioflavin fluorescence (complete inhibition) [2]: > 30

SMILES: CC(C)C[C@@H](C(=O)N[C@H](C(=O)N(C)[C@@H](Cc1ccccc1)C(=O)N[C@@H](Cc1ccccc1)C(=O)N(C)[C@@H](C)C(=O)N[C@@H](CCCCN)C(N)=O)C(C)C)N(C)C(=O)[C@@H](N)CCC(=O)O [Aβ16-22mR, NH2-E(me-L)V(me-F)F(me-A)-K-CONH2] (H-E[NMeL]V[NMeF]F[NMeA]K-NH2)
- solubility in aqueous media (in words) [4]: highly soluble in aqueous solutions
- Inhibition of Fibrillogenesis ICmax [2]: 100
- Inhibition of Fibrilogenesis ICmax [2]: 100%
- effect on Aβ40 fibril formation (in words) [2]: prevented fibril formation of Aβ40 in a dose dependent manner

SMILES: CC(C)[C@H](NC(=O)[C@H](C(C)C)N(C)C(=O)[C@H](C)NC(=O)[C@H](C)NC(=O)[C@H](C)NC(=O)[C@H](C)N(C)C(=O)[C@H](C)NC(=O)CN)C(N)=O [PrPm, NH2-GA(me-A)AAA(me-V)V-CONH2] (H-GA[NMeA]AAA[NMeV]V-NH2)
- Inhibition of Fibrillogenesis ICmax [2]: 8.6
- Inhibition of Fibrilogenesis ICmax [2]: 8.6%
- effect on Aβ40 fibril formation (in words) [2]: no effect
